Measurements taken from PMC6934184, “Selective DNA-PKcs inhibition extends the therapeutic index of localized radiotherapy and chemotherapy” (The Journal of Clinical Investigation, 2019).

Biological target: T1, ABL1 T315I (Homo sapiens, UniProt P00519, T315I)
T1 construct: purchased Thermo Fisher Scientific (Life Technologies) SelectScreen
Test: SelectScreen Z'LYTE
Assay type: biochemical
Outline: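 Compound tested in SelectScreen activity assays, Z'LYTE for CSF1R, CDK1/cyclin B and MAP2K6 and Adapta for CAMK1. ATP for CAMK1 was listed as 10, and Km app was used for CSF1R. Results are expressed in percent.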

Structure (SMILES): CN(C(=O)CN1CCOCC1)c1ccc2sc3c(-c4cccc5c(=O)cc(N6CC7CCC(C6)O7)oc45)cccc3c2c1 [NU5455]
- inhibition at 1 µM: -3%
